# Like-named read-outs stand apart in the source and are kept apart here.
# Tests used:
# HIV-protease enzyme = molecular target: T1, HIV-protease enzyme (Human immunodeficiency virus type 1 group M subtype B, UniProt P04585); experiment: HIV-protease enzyme inhibition (Ki); type: biochemical, HIV-1
# T1 construct: tested against HIV-protease enzyme (Ki)
# [1] = storage stability as solid or in solution (polymerization / oligomerization); type: physicochemical
# From the text: The compounds are stable and can be stored for weeks or longer at room temperature without noticeable decomposition in either solid or solution form. In addition, there is no intrinsic toxicity associated with silicon (Friedberg, K. D. and Schiller, E., Handbook on Toxicity of Inorganic Compounds, Eds. Seiler H, G., and Sigel, H.; Marcel Dekker, New York, 1988, pp. 595-617).
# The C2 symmetry of the HIV protease has led to the development of C2 symmetric inhibitors such as Merck's L-700, 417. The silanediol analog 9a was prepared from the commercially available dichlorodiphenylsilane. Treatment of this dichlorosilane with the enantiomerically pure lithium reagent 53b led to the symmetric diether 54 in 75% yield. Cleavage of the ethers and oxidation to the diacid was followed by preparation of the diamide 56. For this study, N-benzyl amides were used as the simplest first analog. Hydrolysis of diphenylsilane 56 to the silanediol 9a was effected by treatment with triflic acid in dichloromethane at 0° C. for ten to 30 minutes. Under these conditions, both phenyl groups on silicon are lost very rapidly. We believe that the intermediate formed is not a di-triflate, but is the spirocyclic intermediate 57. Addition of the triflic acid-derived intermediate to an aqueous phase (either acidic, buffered, or basic) serves to finish hydrolysis to the diol 9a. […]
# [2] = molecular target: T2, recombinant HIV-1 protease (Human immunodeficiency virus type 1 group M subtype B, UniProt P04585); experiment: HIV-1 protease inhibition, cleavage of substrate polypeptide, HPLC-based detection; type: biochemical
# T2 construct: recombinant HIV-1 protease
# From the text: The standard test procedure for HIV-1 protease inhibition uses recombinant HIV-1 protease in an assay which monitors cleavage of a substrate polypeptide using an HPLC-based detection system. Proc. Nat. Acad. Sci. 86, 9752 (1989).
# [3] = test system: angiotensin-converting enzyme; details: Galardy and Kortylewicz 1985; cited from earlier work
# HIV-1 virus = experiment: antiviral cell culture assay (IC90); type: cell-based
# [4] = HIV-protease enzyme, read-out: Ki
compound,measurement,setting,value
"O=C(NCc1ccccc1)[C@H](Cc1ccccc1)C[Si](O)(O)C[C@@H](Cc1ccccc1)C(=O)NCc1ccccc1 [Compound 9a, Di-benzyl 2-(S)-6-(S)-dibenzyl-4,4-dihydroxy-4-sila-heptanediamide]",Ki,HIV-protease enzyme,3160 nM
same,storage stability of the pure diol,"[1]; as a solid or in deuterochloroform solution, for weeks",without polymerization
same,stability in DMSO,"[1]; taken up in DMSO, one week",fully stable
same,IC50,[2],5600 nM
"O=C(NCc1ccccc1)C(Cc1ccccc1)C[Si](O)(CC(Cc1ccccc1)C(=O)NCc1ccccc1)O[Si](O)(CC(Cc1ccccc1)C(=O)NCc1ccccc1)CC(Cc1ccccc1)C(=O)NCc1ccccc1 [Compound 60, 1,3-dihydroxy-1,1,3-3-tetra(3-[2-(S)-2-phenylmethylpropionyl])-disiloxane tetra(N-phenylmethylamide)]",Ki,HIV-protease enzyme; [4],4670 nM
"O=C(NCc1ccccc1)C(Cc1ccccc1)C[Si]1(CC(Cc2ccccc2)C(=O)NCc2ccccc2)O[Si](CC(Cc2ccccc2)C(=O)NCc2ccccc2)(CC(Cc2ccccc2)C(=O)NCc2ccccc2)O[Si](CC(Cc2ccccc2)C(=O)NCc2ccccc2)(CC(Cc2ccccc2)C(=O)NCc2ccccc2)O[Si](CC(Cc2ccccc2)C(=O)NCc2ccccc2)(CC(Cc2ccccc2)C(=O)NCc2ccccc2)O1 [Compound 61, 1,1,3,3,5,5,7,7-octa(3-[2-(S)-2-phenylmethylpropionyl)]-cyclotetrasiloxane octa(N-phenylmethylamide)]",Ki,HIV-protease enzyme; [4],2300 nM
C[Si](C)(O)O [dimethylsilanediol],inhibitor of angiotensin-converting enzyme,[3],inactive
"CC(C)(C)NC(=O)[C@@H]1CN(Cc2cccnc2)CCN1C[C@@H](O)C[C@@H](Cc1ccccc1)C(=O)N[C@H]1c2ccccc2C[C@H]1O [indinavir, reference compound]",IC90,HIV-1 virus; Human immunodeficiency virus 1,33 nM
"Di-[1-(S)-(2,(R)-hydroxyindanyl)]2-(S)-6-(S)-dibenzyl-4,4-dihydroxy-4-sila-heptanediamide [Compound 9b]",IC90,HIV-1 virus,170 nM
same,Ki,HIV-protease enzyme; [4],2.7 nM

# From patent US6960678B2, “Silanol enzyme inhibitors” (The Research Foundation of State University of New York, priority 1996, dated 2005)
